A short description of the data set: Studies on oxidation of the compound of Formula (I). It is filed as physicochemical. The protocol:
Stability was analyzed using a variety of antioxidants. A bulk formulation containing Kolliphor® RH 40, PEG600, Polysorbate 80, Labrasol®, and Transcutol® HP (45:15:10:20:10 by weight) was prepared with a compound of Formula (I) concentration of 60 mg/g. Antioxidants, including Vitamin E (0.05 wt %), ascorbyl palmitate (0.05 wt %), butylated hydroxytoluene (0.005 wt %), and triethyl citrate (0.7 wt %) were dissolved/dispersed in the bulk formulation, respectively. The resulting samples were placed at room temperature in glass vials and protected from light. The samples were monitored for purity by HPLC at 0, 3, and 8 weeks.

On to `COc1ccc(S(=O)(=O)Nc2cc(-c3c(O)ccc4ccccc34)c(O)c3ccccc23)cc1` [Compound of Formula (I)], for which the susceptibility to oxidation entry was “susceptible to oxidation”.
